Data as given in patent US11000033B2, “Ketone or oxime compound, and herbicide” (NISSAN CHEMICAL CORPORATION, priority 2014, dated 2021).

How the values were obtained:
Assay type in all cases: in vivo
[1] = tested on: Echinochloa crus-galli var. crus-galli; experiment: Test Example 3: herbicidal effect by foliage application, Wagner pot (symbol H); details: application herbicide amount 320 g/ha
Outline: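 Plants sown in submerged alluvial soil (water depth 0.1–0.5 cm) in a 25–30 °C greenhouse and grown 14 days. An emulsion of the compound diluted in water to a set herbicide amount was sprayed uniformly on foliage. Effect on each plant scored 3 weeks after application.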

soybean [2] = experiment: Test Example 4: effect on crop by soil treatment (symbol d); details: for d: soybean, effect grade on crop: 320 g/ha; for d (soybean) effect on crop grade: application herbicide amount 320 g/ha
Outline: (§1)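 Crop seed is sown in spots together with several weed species in a box of sterilized diluvial soil. It is covered by about 1.5 cm of soil and kept in a greenhouse held between 25° C. and 30° C.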

Avena fatua = experiment: Test Example 5: herbicidal effect by foliage application, plastic box (symbol I); details: 320 g/ha, 3 weeks after application
Outline: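 Leaf-applied emulsion, water-diluted to a preset herbicide dose, on two-week-old seedlings raised in a 25° C. to 30° C. greenhouse; injury rated at 3 weeks using earlier criteria.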

[3] = tested on: Echinochloa oryzacola Vasing.; experiment: Test Example 1: herbicidal activity, application before weed generation in submerged conditions (symbol A); details: application herbicide amount 320 g/ha
Outline: (§2)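 Steps: alluvial soil flooded to 4 cm; weed seeds sown together; rice seedlings (2.5 leaf) transplanted; diluted emulsion applied to water surface the same day as sowing; plants grown at 25–30 °C in greenhouse; herbicidal effect rated on a 0–5 scale at 3 weeks.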

rapeseed = experiment: Test Example 4: effect on crop by soil treatment (symbol g); details: for g: rapeseed, effect grade on crop: 320 g/ha; for g (rapeseed) effect on crop grade: application herbicide amount 320 g/ha
Outline: as §1

soybean [4] = experiment: Test Example 5: effect on crop by foliage application, plastic box (symbol d); details: 320 g/ha, 3 weeks after application
Outline: (§3)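 Crop and weed seeds sown in spots in sterilized diluvial soil in plastic boxes and covered with about 1.5 cm soil. Plants raised in a greenhouse at 25° C. to 30° C. for foliar application.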

wheat = experiment: Test Example 5: effect on crop by foliage application, plastic box (symbol e); details: 320 g/ha, 3 weeks after application
Outline: as §3

Scirpus juncoides [5] = experiment: Test Example 1: herbicidal activity, application before weed generation in submerged conditions (symbol B); details: application herbicide amount 320 g/ha
Outline: as §2

Amaranthus retroflexus = experiment: Test Example 4: herbicidal effect by soil treatment (symbol N); details: for N: Amaranthus retroflexus, herbicidal effect grade: 320 g/ha; for N (Amaranthus retroflexus) herbicidal effect grade: application herbicide amount 320 g/ha
Outline: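 Seeds were sown in sterilized diluvial soil, covered with about 1.5 cm of soil, and the soil surface was sprayed with a water-diluted emulsion of the compound at a predetermined rate. Plants grew in a greenhouse at 25° C. to 30° C.; effects were scored visually 3 weeks after application.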

Scirpus juncoides [6] = experiment: Test Example 2: herbicidal activity, application during weed generation in submerged conditions (symbol B); details: Table 23; application herbicide amount 320 g/ha; grade 0-5 by criteria of Test Example 1
Outline: (§4)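 Seeds sown in flooded alluvial soil (4 cm water) were grown in a 25-30° C greenhouse. At the one- to two-leaf stage, diluted emulsion of compound was applied to the water surface at a predetermined rate. Effect was scored 3 weeks later.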

Monochoria vaginalis = experiment: Test Example 2: herbicidal activity, application during weed generation in submerged conditions (symbol C); details: Table 23; application herbicide amount 320 g/ha; grade 0-5 by criteria of Test Example 1
Outline: as §4

rice plant = experiment: Test Example 5: effect on crop by foliage application, plastic box (symbol b); details: 320 g/ha, 3 weeks after application
Outline: as §3

Row | Compound | herbicidal effect on H (Echinochloa crus-galli var. crus-galli), grade 0-5 [1] | d: soybean, effect grade on crop (soybean [2]) | I: Avena fatua, herbicidal effect (criteria 0-5) (Avena fatua) | Herbicidal effect grade, A: Echinochloa oryzacola Vasing. [3] | g: rapeseed, effect grade on crop (rapeseed) | d: soybean, effect on crop (criteria 0-5) (soybean [4]) | e: wheat, effect on crop (criteria 0-5) (wheat) | Herbicidal effect grade, B: Scirpus juncoides (Scirpus juncoides [5]) | N: Amaranthus retroflexus, herbicidal effect grade (Amaranthus retroflexus) | Herbicidal effect grade, B: Scirpus juncoides (Scirpus juncoides [6]) | Herbicidal effect grade, C: Monochoria vaginalis (Monochoria vaginalis) | b: directly sowed rice plant, effect on crop (criteria 0-5) (rice plant) | d (soybean) effect on crop grade (soybean [2]) | I: Avena fatua, herbicidal effect grade (Avena fatua) | g (rapeseed) effect on crop grade (rapeseed) | d: soybean, effect on crop grade (soybean [4]) | e: wheat, effect on crop grade (wheat) | N (Amaranthus retroflexus) herbicidal effect grade (Amaranthus retroflexus) | b: directly sowed rice plant, effect on crop grade (rice plant)
1 | CON=C(C)CC1CC(OC(=O)C=Cc2ccco2)=C(c2c(C)cc(C)cc2C)C1=O (stereo not drawn) [1-091] | 5 (Herbicidal ratio of 90% or more (almost completely withered)) | 0 (Herbicidal ratio of 5% or lower (almost no effect)) | 5 (Herbicidal ratio of 90% or more (almost completely withered)) | 5 (Herbicidal ratio of 90% or more (almost completely withered)) | 3 (Herbicidal ratio of 40% or higher and lower than 70%) | 1 (Herbicidal ratio of 5% or higher and lower than 20%) | 5 (Herbicidal ratio of 90% or more (almost completely withered)) | 5 (Herbicidal ratio of 90% or more (almost completely withered)) | 0 (Herbicidal ratio of 5% or lower (almost no effect)) | 3 (Herbicidal ratio of 40% or higher and lower than 70%) | 0 (Herbicidal ratio of 5% or lower (almost no effect)) | 5 (Herbicidal ratio of 90% or more (almost completely withered)) | – | – | – | – | – | – | –
2 | CON=C(C)CC1CC(OC(=O)C(C)(C)F)=C(c2c(C)cc(C)cc2C)C1=O (stereo not drawn) [1-039] | 5 (Herbicidal ratio of 90% or more (almost completely withered)) | – | – | 5 (Herbicidal ratio of 90% or more (almost completely withered)) | – | – | – | 5 (Herbicidal ratio of 90% or more (almost completely withered)) | – | 5 (Herbicidal ratio of 90% or more (almost completely withered)) | 3 (Herbicidal ratio of 40% or higher and lower than 70%) | – | 0 (Herbicidal ratio of 5% or lower (almost no effect)) | 5 (Herbicidal ratio of 90% or more (almost completely withered)) | 4 (Herbicidal ratio of 70% or higher and lower than 90%) | 4 (Herbicidal ratio of 70% or higher and lower than 90%) | 5 (Herbicidal ratio of 90% or more (almost completely withered)) | 5 (Herbicidal ratio of 90% or more (almost completely withered)) | 5 (Herbicidal ratio of 90% or more (almost completely withered))
3 | CON=C(C)CC1CC(OC(=O)C(C)Oc2ccccc2)=C(c2c(C)cc(C)cc2C)C1=O (stereo not drawn) [1-060] | 5 (Herbicidal ratio of 90% or more (almost completely withered)) | – | – | 5 (Herbicidal ratio of 90% or more (almost completely withered)) | – | – | – | 4 (Herbicidal ratio of 70% or higher and lower than 90%) | – | 4 (Herbicidal ratio of 70% or higher and lower than 90%) | 0 (Herbicidal ratio of 5% or lower (almost no effect)) | – | 0 (Herbicidal ratio of 5% or lower (almost no effect)) | 5 (Herbicidal ratio of 90% or more (almost completely withered)) | 3 (Herbicidal ratio of 40% or higher and lower than 70%) | 4 (Herbicidal ratio of 70% or higher and lower than 90%) | 5 (Herbicidal ratio of 90% or more (almost completely withered)) | 5 (Herbicidal ratio of 90% or more (almost completely withered)) | 5 (Herbicidal ratio of 90% or more (almost completely withered))
4 | CON=C(C)CC1CC(OC(=O)COc2ccc(F)cc2)=C(c2c(C)cc(C)cc2C)C1=O (stereo not drawn) [1-073] | 5 (Herbicidal ratio of 90% or more (almost completely withered)) | – | 5 (Herbicidal ratio of 90% or more (almost completely withered)) | 5 (Herbicidal ratio of 90% or more (almost completely withered)) | – | 3 (Herbicidal ratio of 40% or higher and lower than 70%) | 5 (Herbicidal ratio of 90% or more (almost completely withered)) | 5 (Herbicidal ratio of 90% or more (almost completely withered)) | – | 5 (Herbicidal ratio of 90% or more (almost completely withered)) | 2 (Herbicidal ratio of 20% or higher and lower than 40%) | 5 (Herbicidal ratio of 90% or more (almost completely withered)) | 0 (Herbicidal ratio of 5% or lower (almost no effect)) | – | 4 (Herbicidal ratio of 70% or higher and lower than 90%) | – | – | 5 (Herbicidal ratio of 90% or more (almost completely withered)) | –
5 | CC#CC(=O)OC1=C(c2c(C)cc(C)cc2C)C(=O)C(CC(C)=NOC)C1 (stereo not drawn) [1-095] | 5 (Herbicidal ratio of 90% or more (almost completely withered)) | 0 (Herbicidal ratio of 5% or lower (almost no effect)) | 5 (Herbicidal ratio of 90% or more (almost completely withered)) | 5 (Herbicidal ratio of 90% or more (almost completely withered)) | 4 (Herbicidal ratio of 70% or higher and lower than 90%) | 2 (Herbicidal ratio of 20% or higher and lower than 40%) | 5 (Herbicidal ratio of 90% or more (almost completely withered)) | 5 (Herbicidal ratio of 90% or more (almost completely withered)) | 4 (Herbicidal ratio of 70% or higher and lower than 90%) | 4 (Herbicidal ratio of 70% or higher and lower than 90%) | 1 (Herbicidal ratio of 5% or higher and lower than 20%) | 5 (Herbicidal ratio of 90% or more (almost completely withered)) | – | – | – | – | – | – | –
6 | CON=C(C)CC1CC(OC(=O)C(C)Oc2ccc(Oc3cnc4cc(Cl)ccc4n3)cc2)=C(c2c(C)cc(C)cc2C)C1=O (stereo not drawn) [1-087] | 5 (Herbicidal ratio of 90% or more (almost completely withered)) | 2 (Herbicidal ratio of 20% or higher and lower than 40%) | 5 (Herbicidal ratio of 90% or more (almost completely withered)) | 5 (Herbicidal ratio of 90% or more (almost completely withered)) | 5 (Herbicidal ratio of 90% or more (almost completely withered)) | 3 (Herbicidal ratio of 40% or higher and lower than 70%) | 5 (Herbicidal ratio of 90% or more (almost completely withered)) | 5 (Herbicidal ratio of 90% or more (almost completely withered)) | 5 (Herbicidal ratio of 90% or more (almost completely withered)) | 5 (Herbicidal ratio of 90% or more (almost completely withered)) | 1 (Herbicidal ratio of 5% or higher and lower than 20%) | 5 (Herbicidal ratio of 90% or more (almost completely withered)) | – | – | – | – | – | – | –
